This note sets out measurements from BindingDB's records for PubMed 35175760 (Shandong University, 2022).

Experiment [1] can be described thus: Inhibition of wild type HIV-1 reverse transcriptase assessed as reduction in luciferase reporter activity by single-round assay.
A short description of experiment [2]: Inhibition of HIV-1 reverse transcriptase K103N mutant assessed as reduction in luciferase reporter activity by single-round assay.
A short description of experiment [3]: Inhibition of HIV-1 reverse transcriptase E138K mutant assessed as reduction in luciferase reporter activity by single-round assay.
Experiment [4] can be described thus: Inhibition of HIV-1 reverse transcriptase Y181C mutant assessed as reduction in luciferase reporter activity by single-round assay.
The nature of experiment [5]: Inhibition of HIV-1 reverse transcriptase Y188L mutant assessed as reduction in luciferase reporter activity by single-round assay.

For the compound `Cc1cc(/C=C/C#N)cc(C)c1Nc1ccnc(Nc2ccc(C#N)cc2)n1` [Rilpivirine], the EC50 in experiment [1] came to 0.4 nM.
For `Cc1cc(/C=C/C#N)cc(C)c1Nc1ncc2ncn(-c3ccc(C#N)cc3)c2n1`, the EC50 in experiment [1] stood at 4.5 nM; in experiment [2], 6.5 nM; in experiment [3] it was 25 nM; in experiment [4], 26 nM; in experiment [5], 91 nM.
Take `Cc1cc(/C=C/C#N)cc(C)c1-n1cnc2cnc(Nc3ccc(C#N)cc3)nc21`: the EC50 in experiment [1] is 0.2 nM; in experiment [2], 0.4 nM; in experiment [3], 0.7 nM; in experiment [4], 1.5 nM; in experiment [5] it was 9.6 nM.
